From patent US11452718B2 (AVALYN PHARMA INC., priority 2012, dated 2022)
Read-outs that look alike come from different tables or passages of the source.

What was measured:
[1] = Stability assessment of pirfenidone formulations at 25° C./60RH and 40° C./75RH; format: physicochemical; details: for Measured Pirfenidone / mOsmol/kg / pH: time zero
Description: The sample was agitated until completely dissolved. Once dissolved, samples were filtered via syringe through a 0.22 μm PVDF filter.
Samples were refrigerated to reduce evaporative loss of volatile co-solvents (ethanol) during filtration and dispensing. An approximate 5.0-mL aliquot of each formulation was transferred to class A glass 6 ml containers with suitable closures (20 mm stopper). At least 8 containers are being maintained in the upright orientation at 25° C./60RH, and another 8 containers maintained at 40° C./75RH.

[2] = Process temperature development study (60° C. dissolution, cooling to 25° C.); format: physicochemical; details: for Pirfenidone (mg/mL) >Re-crystal: after stepwise cooling to 25° C. and later re-crystallization
Description: Formulations were prepared as described in Table 11. […] The final volume of each formulation was 5 mL. […] Each sample was mixed thoroughly and agitated overnight at 60° C. Rapid cooling and step-wise cooling from 60° C. to 25° C. was performed. HPLC analysis was performed on samples taken after overnight incubation and after cooling to 25° C. Prior to HPLC analysis, formulations were filtered via syringe through a 0.45 μm PVDF filter.

[3] = Extended-duration intratracheal and oral pharmacokinetic study; format: in vivo, Wistar rats
Description: Previous intratracheal aerosol delivery (see Example 6) was performed as a single bolus instillation just above the first bifurcation of the lung. For in vivo efficacy studies, an attempt was made to mimic tidal inhaled breathing by splitting the dose into equal parts and administering as before, but over a 2 minute period. […] Doses were prepared in 0.45% sodium chloride solution and were administered as described in Table 21.
Plasma samples and entire lungs were taken at pre-dose, 2, 4, 6, 10, 30, 60 and 120 minutes post dosing. Materials were extracted and pirfenidone quantitated as mcg/mL plasma and μg/gram lung tissue.

[4] = Intravenous push of pirfenidone to a mouse: plasma and lung levels; format: in vivo; details: 40 mg/kg intravenous dose; blood about 40% of wet lung weight
Description: Exemplary Lung Tissue Delivery Assumptions: • 1. The total wet weight of the adult human lung is about 685 to 1,050 grams (for calculations, conservatively about […]); • 2. The adult human lung blood volume is about 450 mL; • 3. The tissue weight of the adult human lung is conservatively 1,050 grams wet weight minus 450 mL blood weight (assuming density of 1.0), equals 600 grams; • 4. […] The inhaled route of administration is dependent upon a respirable delivered dose (RDD). The RDD is the fraction of drug inhaled in aerosol particles less than 5 microns in diameter; • 7. RDD of typical dry powder, liquid nebulization or meter-dose inhalation devices ranges from 10% to 70%. Higher and lower efficiency devices with RDDs greater than 70% and less than 10% also exist; • 8. […] From the above observations and calculations, the lower limit of efficacy in lung tissue is 8 mcg/gram; and • 10.

[5] = Rubino et al., cited from earlier work
[6] = 25° C./60% RH, 5 mM phosphate buffer pH 6.5 plus 1% (v/v) EtOH, 2% (v/v) PG, target pirfenidone 1 mg/mL
[7] = 25° C./60% RH, 5 mM phosphate buffer pH 6.5 plus 1% (v/v) EtOH, 2% (v/v) PG, target pirfenidone 15 mg/mL
[8] = 25° C./60% RH, 5 mM phosphate buffer pH 6.5 plus 4% (v/v) EtOH, 8% (v/v) PG, target pirfenidone 23 mg/mL
[9] = 25° C./60% RH, 5 mM phosphate buffer pH 6.5 plus 6% (v/v) EtOH, 12% (v/v) PG, target pirfenidone 30 mg/mL
[10] = 25° C./60% RH, 5 mM phosphate buffer pH 6.5 plus 8% (v/v) EtOH, 16% (v/v) PG, target pirfenidone 1 mg/mL
[11] = 25° C./60% RH, 5 mM phosphate buffer pH 6.5 plus 8% (v/v) EtOH, 16% (v/v) PG, target pirfenidone 38 mg/mL
[12] = 40° C./75% RH, 5 mM phosphate buffer pH 6.5 plus 1% (v/v) EtOH, 2% (v/v) PG, target pirfenidone 1 mg/mL
[13] = 40° C./75% RH, 5 mM phosphate buffer pH 6.5 plus 1% (v/v) EtOH, 2% (v/v) PG, target pirfenidone 15 mg/mL
[14] = 40° C./75% RH, 5 mM phosphate buffer pH 6.5 plus 4% (v/v) EtOH, 8% (v/v) PG, target pirfenidone 23 mg/mL
[15] = 40° C./75% RH, 5 mM phosphate buffer pH 6.5 plus 6% (v/v) EtOH, 12% (v/v) PG, target pirfenidone 30 mg/mL
[16] = 40° C./75% RH, 5 mM phosphate buffer pH 6.5 plus 8% (v/v) EtOH, 16% (v/v) PG, target pirfenidone 1 mg/mL
[17] = 40° C./75% RH, 5 mM phosphate buffer pH 6.5 plus 8% (v/v) EtOH, 16% (v/v) PG, target pirfenidone 38 mg/mL
[18] = 5 mM phosphate buffer pH 6.5 plus 1% (v/v) EtOH, 2% (v/v) PG, target pirfenidone 1 mg/mL
[19] = 5 mM phosphate buffer pH 6.5 plus 1% (v/v) EtOH, 2% (v/v) PG, target pirfenidone 15 mg/mL
[20] = 5 mM phosphate buffer pH 6.5 plus 4% (v/v) EtOH, 8% (v/v) PG, target pirfenidone 23 mg/mL
[21] = 5 mM phosphate buffer pH 6.5 plus 6% (v/v) EtOH, 12% (v/v) PG, target pirfenidone 30 mg/mL
[22] = 5 mM phosphate buffer pH 6.5 plus 8% (v/v) EtOH, 16% (v/v) PG, target pirfenidone 1 mg/mL
[23] = 5 mM phosphate buffer pH 6.5 plus 8% (v/v) EtOH, 16% (v/v) PG, target pirfenidone 38 mg/mL
[24] = EtOH 0, PG 8, PS80 0 % v/v, 92% phosphate buffer (5 mM), pH 6.6
[25] = EtOH 0, PG 8, PS80 0.04 % v/v, 92% phosphate buffer (5 mM), pH 6.7
[26] = EtOH 4, PG 0, PS80 0.04 % v/v, 96% phosphate buffer (5 mM), pH 6.6
[27] = EtOH 4, PG 8, PS80 0 % v/v, 88% phosphate buffer (5 mM), pH 6.7
[28] = EtOH 4, PG 8, PS80 0.04 % v/v, 88% phosphate buffer (5 mM), pH 6.7
[29] = intratracheal aerosol 2.5 mg/kg, extended-duration (2 minutes)
[30] = intratracheal aerosol 5 mg/kg, extended-duration (2 minutes)
[31] = intratracheal aerosol 10 mg/kg, extended-duration (2 minutes)

Cc1ccc(=O)n(-c2ccccc2)c1 [pirfenidone, 5-methyl-1-phenyl-2-(1H)-pyridone]
Pirfenidone (mg/mL) at Time = 0 [1, 6]: 1.0 mg/mL
Pirfenidone (mg/mL) at Time = 1 month [1, 6]: 1.0 mg/mL
Pirfenidone (mg/mL) at Time = 3 month [1, 6]: 1.0 mg/mL
Pirfenidone (mg/mL) at Time = 6 month [1, 6]: 1.0 mg/mL
Pirfenidone (mg/mL) at Time = 0 [1, 7]: 16.1 mg/mL
Pirfenidone (mg/mL) at Time = 1 month [1, 7]: 15.1 mg/mL
Pirfenidone (mg/mL) at Time = 3 month [1, 7]: 14.9 mg/mL
Pirfenidone (mg/mL) at Time = 6 month [1, 7]: 15.4 mg/mL
Pirfenidone (mg/mL) at Time = 0 [1, 8]: 24.1 mg/mL
Pirfenidone (mg/mL) at Time = 1 month [1, 8]: 22.1 mg/mL
Pirfenidone (mg/mL) at Time = 3 month [1, 8]: 22.3 mg/mL
Pirfenidone (mg/mL) at Time = 6 month [1, 8]: 23.2 mg/mL
Pirfenidone (mg/mL) at Time = 0 [1, 9]: 30.3 mg/mL
Pirfenidone (mg/mL) at Time = 1 month [1, 9]: 30.1 mg/mL
Pirfenidone (mg/mL) at Time = 3 month [1, 9]: 29.6 mg/mL
Pirfenidone (mg/mL) at Time = 6 month [1, 9]: 31.0 mg/mL
Pirfenidone (mg/mL) at Time = 0 [1, 10]: 1.0 mg/mL
Pirfenidone (mg/mL) at Time = 1 month [1, 10]: 1.0 mg/mL
Pirfenidone (mg/mL) at Time = 3 month [1, 10]: 1.0 mg/mL
Pirfenidone (mg/mL) at Time = 6 month [1, 10]: 1.0 mg/mL
Pirfenidone (mg/mL) at Time = 0 [1, 11]: 38.9 mg/mL
Pirfenidone (mg/mL) at Time = 1 month [1, 11]: 38.3 mg/mL
Pirfenidone (mg/mL) at Time = 3 month [1, 11]: 38.0 mg/mL
Pirfenidone (mg/mL) at Time = 6 month [1, 11]: 39.2 mg/mL
Pirfenidone (mg/mL) at Time = 0 [1, 12]: 1.0 mg/mL
Pirfenidone (mg/mL) at Time = 1 month [1, 12]: 1.0 mg/mL
Pirfenidone (mg/mL) at Time = 3 month [1, 12]: 1.0 mg/mL
Pirfenidone (mg/mL) at Time = 6 month [1, 12]: 1.0 mg/mL
Pirfenidone (mg/mL) at Time = 0 [1, 13]: 16.1 mg/mL
Pirfenidone (mg/mL) at Time = 1 month [1, 13]: 15.1 mg/mL
Pirfenidone (mg/mL) at Time = 3 month [1, 13]: 14.8 mg/mL
Pirfenidone (mg/mL) at Time = 6 month [1, 13]: 15.5 mg/mL
Pirfenidone (mg/mL) at Time = 0 [1, 14]: 24.1 mg/mL
Pirfenidone (mg/mL) at Time = 1 month [1, 14]: 22.4 mg/mL
Pirfenidone (mg/mL) at Time = 3 month [1, 14]: 22.1 mg/mL
Pirfenidone (mg/mL) at Time = 6 month [1, 14]: 23.3 mg/mL
Pirfenidone (mg/mL) at Time = 0 [1, 15]: 30.3 mg/mL
Pirfenidone (mg/mL) at Time = 1 month [1, 15]: 30.3 mg/mL
Pirfenidone (mg/mL) at Time = 3 month [1, 15]: 30.0 mg/mL
Pirfenidone (mg/mL) at Time = 6 month [1, 15]: 31.1 mg/mL
Pirfenidone (mg/mL) at Time = 0 [1, 16]: 1.0 mg/mL
Pirfenidone (mg/mL) at Time = 1 month [1, 16]: 1.0 mg/mL
Pirfenidone (mg/mL) at Time = 3 month [1, 16]: 1.0 mg/mL
Pirfenidone (mg/mL) at Time = 6 month [1, 16]: 1.0 mg/mL
Pirfenidone (mg/mL) at Time = 0 [1, 17]: 38.9 mg/mL
Pirfenidone (mg/mL) at Time = 1 month [1, 17]: 38.4 mg/mL
Pirfenidone (mg/mL) at Time = 3 month [1, 17]: 38.0 mg/mL
Pirfenidone (mg/mL) at Time = 6 month [1, 17]: 37.9 mg/mL
Measured Pirfenidone [1, 18]: 1.0 mg/mL
mOsmol/kg [1, 18]: 452 mOsmol/kg
pH [1, 18]: 6.69
Measured Pirfenidone [1, 19]: 16.1 mg/mL
mOsmol/kg [1, 19]: 512 mOsmol/kg
pH [1, 19]: 6.65
Measured Pirfenidone [1, 20]: 24.1 mg/mL
pH [1, 20]: 6.78
Measured Pirfenidone [1, 21]: 30.3 mg/mL
mOsmol/kg [1, 21]: 2863 mOsmol/kg
pH [1, 21]: 6.90
Measured Pirfenidone [1, 22]: 1.0 mg/mL
mOsmol/kg [1, 22]: 3590 mOsmol/kg
pH [1, 22]: 6.98
Measured Pirfenidone [1, 23]: 38.9 mg/mL
mOsmol/kg [1, 23]: 3750 mOsmol/kg
pH [1, 23]: 7.04
full dissolution on heating ([2]; 60° C.): ≥ 50 mg/mL
Observations: dissolution [2, 24]: Fully dissolved after overnight at 60 °C
Observations: stable at 25° C. before re-crystallization [2, 24]: Stable at 25 °C for >4 hours before re-
Pirfenidone (mg/mL) >60° C. [2, 24]: 54.6 mg/mL
Pirfenidone (mg/mL) >Re-crystal [2, 24]: 18.6 mg/mL
Observations: dissolution [2, 25]: Fully dissolved after overnight at 60 °C
Observations: stable at 25° C. before re-crystallization [2, 25]: Stable at 25 °C for >4 hours before re-
Pirfenidone (mg/mL) >60° C. [2, 25]: 52.8 mg/mL
Pirfenidone (mg/mL) >Re-crystal [2, 25]: 22.3 mg/mL
Observations: dissolution [2, 26]: Fully dissolved after overnight at 60 °C
Observations: stable at 25° C. before re-crystallization [2, 26]: Stable at 25 °C for >4 hours before re-
Pirfenidone (mg/mL) >60° C. [2, 26]: 50.7 mg/mL
Pirfenidone (mg/mL) >Re-crystal [2, 26]: 22.4 mg/mL
Observations: dissolution [2, 27]: Fully dissolved after overnight at 60 °C
Observations: stable at 25° C. before re-crystallization [2, 27]: Stable at 25 °C for >4 hours before re-
Pirfenidone (mg/mL) >60° C. [2, 27]: 50.34 mg/mL
Pirfenidone (mg/mL) >Re-crystal [2, 27]: 27.6 mg/mL
Observations: dissolution [2, 28]: Fully dissolved after overnight at 60 °C
Observations: stable at 25° C. before re-crystallization [2, 28]: Stable at 25 °C for >4 hours before re-
Pirfenidone (mg/mL) >60° C. [2, 28]: 51.8 mg/mL
Pirfenidone (mg/mL) >Re-crystal [2, 28]: 26.8 mg/mL
outcome of rapid cooling ([2]; rapid cooling to 25° C.): rapid recrystallization
concentration staying in solution for several hours ([2]; slow step-wise cooling from 60° C. to 25° C.): about 50 mg/mL
adverse events ([3]; extended-duration intratracheal aerosol or oral gavage): No adverse events were noted
Lung Tissue AUC(0-2 hr) [3, 29]: 3.5 µg·h/g
Lung Tissue Cmax [3, 29]: 14.4 μg/gram
Lung Tissue AUC(0-2 hr) [3, 30]: 6.6 µg·h/g
Lung Tissue Cmax [3, 30]: 27.9 μg/gram
Lung Tissue AUC(0-2 hr) [3, 31]: 14.5 µg·h/g
Lung Tissue Cmax [3, 31]: 61.1 μg/gram
Lung Tissue AUC(0-2 hr) ([3]; oral gavage 10 mg/kg): 4.9 µg·h/g
Lung Tissue Cmax ([3]; oral gavage 10 mg/kg): 3.5 μg/gram
Lung Tissue AUC(0-2 hr) ([3]; oral gavage 30 mg/kg): 13.5 µg·h/g
Lung Tissue Cmax ([3]; oral gavage 30 mg/kg): 9.8 μg/gram
Lung Tissue AUC(0-2 hr) ([3]; oral gavage 100 mg/kg): 27.9 µg·h/g
Lung Tissue Cmax ([3]; oral gavage 100 mg/kg): 33.6 μg/gram
lung tissue level after subtracting blood contribution [4]: about 8 mcg/g
T1/2 beta ([5]; lung tissue (derived solely from plasma T1/2), aerosol 47 mg RDD, 2009 fasted-state): 2.5 h
T1/2 beta ([5]; lung tissue (derived solely from plasma T1/2), oral 801 mg, fasted-state, 2009): 2.5 h
T1/2 beta ([5]; lung tissue (derived solely from plasma T1/2), oral 801 mg, fed-state, 2009): 2.4 h
T1/2 beta ([5]; plasma, aerosol 47 mg RDD, 2009 fasted-state): 2.5 h
T1/2 beta ([5]; plasma, oral 801 mg, fasted-state, 2009): 2.5 h
T1/2 beta ([5]; plasma, oral 801 mg, fed-state, 2009): 2.4 h
